Experimental data: patent EP0435381B1, “Antipicornaviral pyridazinamines” (priority 1989, dated 1991)
In brackets after ≈: the same amount, converted by molar mass.

Assays:
[1] = tested on: HRV- 2,-29,-39,-85,-9,-15,-51, -59,-63,-89,-41; assay: Picornavirus Minimal Inhibitory Concentration Test (cytopathic effect reduction assay), first panel of rhinoviruses; assay type: cell-based; details: Human rhinovirus sp., HeLa, read-out: Med₁
Protocol: (§1) Example 24: Picornavirus Minimal Inhibitory Concentration Test,
(§2) The Minimal Inhibitory Concentration of the compounds of the present invention against the Human Rhinovirus strains (HRV) -2,-9,-14,-15,-29,-39,-41,-42,-45,-51, -59,-63,-70,-72,-85,-86 and -89 was determined by a standard cytopathic effect reduction assay as follows. To each of the ninety six (96) wells of a microtiter 96 well tissue culture plate there was added 60 µl of an Ohio Hela cell maintenance medium [Eagle's Basal medium supplemented with 5% Foetal Calf Serum (FCS)]. To two wells there was added 60 µl of an appropriate starting dilution of a compound of formula (I) and two-fold dilutions were made to cover a wide range of compound concentrations. Subsequently there were added 120 µl of an infectious solution of virus in Eagle's Basal Medium with 2% Hepes buffer, 2% FCS and 30 mM MgCl₂ to all wells except cell and compound controls. Said infectious virus solution has a TCID₅₀-value (Tissue Culture Infectious Dose) of about 100.
(§3) The TCID₅₀-value is the dose of viruses which initiates a cytopathic effect in 50% of the inoculated cells. 150 µl of the thus obtained virus-compound mixtures were then transferred to microtitre plates with subconfluent Ohio Hela Cells, grown in 100 µl of maintenance medium. Appropriate virus controls, cell controls and compound controls were included in each test. Plates were incubated for 3 to 5 days at 33°C in 5% CO₂ atmosphere. […] The IC₅₀-value for each virus-compound series was taken as the concentration in ng/ml that protected 50% of the cells from cytopathic effects with respect to the untreated controls. In the standard test procedure, the compounds were tested against two panels of rhinoviruses, a first panel consisting of serotypes HRV- 2,-29,-39,-85,-9,-15,-51, -59,-63,-89,-41 and the other panel consisting of HRV-42,-45,-14,-70,-72 and -86.
(§4) The IC₅₀-value for each rhinovirus serotype was determined, and the efficacy of each compound was determined in terms of the Med₁-value and Med₂-value, which is the medium value of the IC₅₀-value of all serotypes from the first and second panel respectively. The following table gives the testing results with the compounds of the invention.

[2] = tested on: HRV-42,-45,-14,-70,-72 and -86; assay: Picornavirus Minimal Inhibitory Concentration Test (cytopathic effect reduction assay), second panel of rhinoviruses; assay type: cell-based; details: Human rhinovirus sp., HRV42; medium value of the IC50-values of all serotypes of the second panel; Ohio Hela cells, 3 to 5 days at 33°C; concentration protecting 50% of the cells from cytopathic effects; read-out: Med₂
Protocol: as §1, §2, §3, §4

SMILES | IC50 [1] | IC50 [2]
CCc1nnc(-c2ccc(OCCC3CCN(c4ccc(C)nn4)CC3)cc2)o1 [compound 1] | 0.006 mg/L (≈ 0.0152 µM) | 0.044 mg/L (≈ 0.112 µM)
CCc1noc(-c2ccc(OCCC3CCN(c4ccc(C)nn4)CC3)cc2)n1 [compound 5, 3-[4-[2-[4-(3-ethyl-1,2,4-oxadiazol-5-yl)phenoxy]ethyl]-1-piperidinyl]-6-methylpyridazine] | 0.0029 mg/L (≈ 0.00737 µM) | 0.098 mg/L (≈ 0.249 µM)
CCc1nc(-c2ccc(OCCC3CCN(c4ccc(C)nn4)CC3)cc2)no1 [compound 6, 3-[4-[2-[4-(5-ethyl-1,2,4-oxadiazol-3-yl)phenoxy]ethyl]-1-piperidinyl]-6-methylpyridazine] | 0.0013 mg/L (≈ 0.0033 µM) | 0.047 mg/L (≈ 0.119 µM)
Cc1ccc(N2CCC(CCOc3ccc(-c4nc(C)no4)cc3)CC2)nn1 [compound 9] | 0.004 mg/L (≈ 0.0105 µM) | 0.018 mg/L (≈ 0.0474 µM)
CCCCc1noc(-c2ccc(OCCC3CCN(c4ccc(C)nn4)CC3)cc2)n1 [compound 11] | 0.006 mg/L (≈ 0.0142 µM) | 0.175 mg/L (≈ 0.415 µM)
CCCc1noc(-c2ccc(OCCC3CCN(c4ccc(C)nn4)CC3)cc2)n1 [compound 13] | 0.0068 mg/L (≈ 0.0167 µM) | 0.154 mg/L (≈ 0.378 µM)
CCc1noc(-c2ccc(OCC3CCN(c4ccc(C)nn4)CC3)cc2)n1 [compound 16] | 0.002 mg/L (≈ 0.00527 µM) | 0.083 mg/L (≈ 0.219 µM)
CCc1nc(-c2ccc(OCCC3CCN(c4ccc(C)nn4)CC3)cc2)co1 [compound 21, 3-[4-[2-[4-(2-ethyl-4-oxazolyl)phenoxy]ethyl]-1-piperidinyl]-6-methylpyridazine] | < 0.0005 mg/L | 0.02 mg/L (≈ 0.051 µM)
CCc1csc(-c2ccc(OCCC3CCN(c4ccc(C)nn4)CC3)cc2)n1 [compound 22, 3-[4-[2-[4-(4-ethyl-2-thiazolyl)phenoxy]ethyl]-1-piperidinyl]-6-methylpyridazine] | 0.001 mg/L (≈ 0.00245 µM) | 0.203 mg/L (≈ 0.497 µM)
Cc1ccc(N2CCC(CCOc3ccc(-c4noc(C)n4)cc3)CC2)nn1 [compound 25] | 0.008 mg/L (≈ 0.0211 µM) | 0.105 mg/L (≈ 0.277 µM)
CCc1nc(-c2ccc(OCCC3CCN(c4ccc(C)nn4)CC3)cc2)cs1 [compound 26] | 0.005 mg/L (≈ 0.0122 µM) | > 0.125 mg/L
CCCc1nc(-c2ccc(OCCC3CCN(c4ccc(C)nn4)CC3)cc2)no1 [compound 27] | 0.006 mg/L (≈ 0.0147 µM) | 0.122 mg/L (≈ 0.299 µM)
CCCc1nc(-c2ccc(OCCC3CCN(c4ccc(C)nn4)CC3)cc2)co1 [compound 36] | 0.007 mg/L (≈ 0.0172 µM) | > 0.125 mg/L
CCc1noc(-c2ccc(OCCN3CCN(c4ccc(Cl)nn4)CC3)cc2)n1 [compound 38] | 0.0024 mg/L (≈ 0.00578 µM) | 0.072 mg/L (≈ 0.174 µM)
CCc1noc(-c2ccc(OCCC3CCN(c4ccc(Cl)nn4)C3)cc2)n1 (stereo not shown) [compound 44] | 0.014 mg/L (≈ 0.035 µM) | 0.166 mg/L (≈ 0.415 µM)
CCc1noc(-c2ccc(OCCC3CCN(c4ccc(C)nn4)C3)cc2)n1 (stereo not shown) [compound 45] | 0.006 mg/L (≈ 0.0158 µM) | 0.065 mg/L (≈ 0.171 µM)
CCc1nc(-c2ccc(OCCC3CCN(c4ccc(C)nn4)C3)cc2)no1 (stereo not shown) [compound 46] | 0.005 mg/L (≈ 0.0132 µM) | 0.04 mg/L (≈ 0.105 µM)
